With `Cc1cnc(CCCCNc2ncc(Cc3ccc(C)nc3)c(=O)[nH]2)c(Br)c1`, the melting point (in general, the temperature, or range, at which the solid turns liquid) is 148 to 151 °C.

In turn, `O=c1ccoc(C(OC2CCCCO2)c2ccccc2)c1OCc1ccccc1` (configuration not stated) yielded a melting point of 115 to 116 °C.

Regarding `COc1ccc(N2C(=O)[C@H](O)[C@@H]2CC2CCCCC2)cc1`, the melting point is 152 to 155 °C.

Molecule `O=C(O)CSc1nc(-n2cc(C3c4ccccc4C=Cc4ccccc43)c(=S)[nH]c2=O)ncc1-c1ccc(CC(=O)O)cc1` yielded a melting point of 280 °C.

In turn, `Cc1cc(C)c2c(n1)N(CCN(C(C)C)C(C)C)C(=O)N(C)C2` came in with a melting point of 97 to 99 °C.

Molecule `CCc1nn(CCO)c(CC)c1Oc1cc(-n2cccn2)cc(-n2cccn2)c1` yielded a melting point of 108 to 110 °C.

Molecule `N#CCCNC(=O)c1cccc(-c2ccc3c(n2)N(c2ccc(Cl)cc2Cl)CC3)c1` yielded a melting point of 219 to 220 °C.

The molecule `Cc1cc(F)ccc1-c1ccc(S(=O)(=O)N2c3ccccc3CC2C(=O)NCc2ccc(CC(=O)O)cc2)cc1` (configuration not stated) had a melting point of 95 to 100 °C.

Take `O=C(Nc1ccc(OCc2ccccn2)nc1)N1CCc2ccc(C(F)(F)F)cc21`: the melting point was 178 to 179 °C.

The molecule `CN(C[C@@H]1C[C@H]1COc1ccc(C(=O)c2ccc(Br)cc2)cc1)C1CC1` (racemic) registered a melting point of 136 to 137 °C.

Turning to `COc1ccc(-c2cnc3nccn3c2)cc1OC1CC2CCC1C2` (configuration not stated), the melting point came to 130 °C.

For `O=S1NC(CC2=C(Cl)c3ccccc3CC2)=NO1` (configuration not stated), the melting point was in the range of 90.5 to 91.5 °C.

The molecule `O=C(NCCCCCNc1c([N+](=O)[O-])cnc2ccccc12)c1ccccc1` registered a melting point of 130 to 132 °C.

Consider `CCOC(=O)CC[C@H](NC(=O)c1ccc(Br)cc1)C(=O)OCC`, for which the melting point lay in the range of 82.5 to 83.5 °C.

For `Cn1cc(-c2ccccc2)c(=S)c(-c2ccccc2)n1`, the melting point was 122 to 123 °C.

Molecule `COc1ccc2c(c1Cl)c(CC(=O)O)c(C)n2C(=O)c1ccc(Cl)s1` gave a melting point of 169 °C.

The molecule `N#Cc1csc(Oc2ccc(-c3ccc(Oc4scc(C#N)c4C#N)cc3)cc2)c1C#N` yielded a melting point of 262 to 264 °C.

`CCOC(=O)CN(Cc1cc(F)ccc1F)S(=O)(=O)c1ccc(N2CCC(NC[C@H](O)c3ccc(O)c(NS(C)(=O)=O)c3)CC2)cc1` displayed a melting point of 85 to 90 °C.

In the case of `CCOC(=O)c1cc2ccccc2nc1C(Cl)(Cl)Cl`, the melting point lay in the range of 66 to 75 °C.

Turning to `CC1=CC(=C(CC(C)CC(C)(C)C)c2cc(C)cc(C)c2OCc2ccccc2)C(O)C(C)=C1` (configuration not stated), the melting point lay within 125 to 126 °C.

The molecule `CC(C)c1cccc(S(=O)(=O)n2c(Cc3ccc(C(=O)O)cc3)cc3cc(Cl)ccc32)c1` yielded a melting point of 181 °C.

`CCOC(=O)c1cc2ccccc2n1C` showed a melting point of 62 to 64 °C.

`C=CC(=O)c1ccc([N+](=O)[O-])cc1` had a melting point of 89 to 90 °C.

For `CCOCCS(=O)(=O)c1nc[nH]n1`, the melting point fell in the range of 91.5 to 92.5 °C.

In turn, `O=C(O)CNC(=NS(=O)(=O)c1ccccc1)Nc1cccc(Cl)c1` displayed a melting point of 218 °C.

`CC(C)(CO)c1ccc(Br)cc1`: the melting point lay within 46.5 to 48 °C.

Regarding `N#Cc1ccccc1-c1c(O)ccc2c3c(oc12)-c1cc(O)ccc1CC3`, the melting point was in the range of 277 to 279 °C.

`O=C(Nc1ccc(S(=O)(=O)N2CCOCC2)cc1)c1cc(Cl)ccc1[N+](=O)[O-]` gave a melting point of 243 to 245 °C.

For `Nc1ccc(CCC(=O)Nc2ccc(Cl)cc2Cl)cc1N`, the melting point is 149 to 150 °C.

As to `COc1ccc(-c2sc3cc(OC)ccc3c2C(=O)c2c(OC)cccc2OC)cc1`, the melting point lay in the range of 146 to 152 °C.

`CC(=O)c1cccc(Oc2ncc(C(F)(F)F)cc2F)c1`: the melting point was in the range of 65 to 67 °C.

Molecule `CCOC(=O)c1c(C)nc2c(ncn2C)c1Cl` gave a melting point of 56 to 58 °C.

`CC(=C1SC(=O)NC1=O)c1ccc(OCCCOc2c(-c3ccc(F)cc3)n(C)c3ccccc3c2=O)cc1` had a melting point of 262 to 264 °C.

`CN(C)C(=O)C(C)(C)n1cc(-c2ccccc2)c(-c2ccccc2)n1` gave a melting point of 148 to 150 °C.

`NNc1ccc(-c2cccc(Cl)c2)nn1` registered a melting point of 173 to 174 °C.

Molecule `Cc1ccc(S(=O)(=O)NC(CN)C(=O)O)cc1` (configuration not stated) had a melting point of 225 to 226 °C.

`COc1ccc2c(c1)c(CC(=O)OCC(=O)N(C)CCO[N+](=O)[O-])c(C)n2C(=O)c1ccc(Cl)cc1` gave a melting point of 118 to 122 °C.

`CC(C)(C)OC(=O)n1c(-c2ccc3c(c2)C(C)(C)OC(=O)N3)ccc1[N+](=O)[O-]` showed a melting point of 125 °C.

`CC(C)c1nc(C(O)(C(F)(F)F)C(F)(F)F)[nH]c1-c1ccc(S(C)(=O)=O)cc1` gave a melting point of 182 to 184 °C.

In turn, `C=CCNC(=O)Nc1ccccc1CCc1cc(C(C)(C)C)c(O)c(C(C)(C)C)c1` showed a melting point of 169 to 172 °C.

The molecule `COc1ccc2c(Cc3c(Cl)cncc3Cl)nnc(CN3CCOCC3)c2c1` had a melting point of 203 to 206 °C.

Take `Cc1ccc(NS(=O)(=O)c2ccccc2)cc1NC(=O)Cc1ccc(C#N)cc1`: the melting point lay in the range of 120 to 122 °C.

`Cc1cccc(C)c1C(=O)Oc1cc([N+](=O)[O-])cc([N+](=O)[O-])c1OC(=O)c1c(C)cccc1C`: the melting point was in the range of 175 to 178 °C.

The molecule `O=C(O)C1CCCN(C(=O)COC2CCN(C(=O)OCc3ccccc3)CC2)C1` (configuration not stated) returned a melting point of 102 to 104 °C.

In turn, `CCN1C(=O)C(=O)c2cc(S(=O)(=O)N(C)C)ccc21` had a melting point of 165 to 167 °C.

With `CC(C)CCC1(c2ccccc2)CC(O)=C(Sc2ccccc2C(=O)O)C(=O)O1` (configuration not stated), the melting point is 99 to 101 °C.

The molecule `CCOC(=O)CC(NC(=O)c1ccc(OC)cc1)C(=O)c1ccco1` (configuration not stated) came in with a melting point of 104 to 106 °C.

Consider `CCc1cc2[nH]c(=O)c(=O)[nH]c2cc1CC`, for which the melting point was more than 360 °C.

Molecule `O=C(O)c1ccc(Cn2ccn(C3CCc4ccccc4C3)c2=S)cc1` (configuration not stated) displayed a melting point of 211 to 212 °C.

In the case of `COc1ccc(S(=O)(=O)C2(Cc3ccccc3)SC(=O)N(CC(=O)NO)C2=O)cc1` (configuration not stated), the melting point was 81 to 85 °C.

Molecule `C#CCN(c1cc(-n2nc3ccc(Cl)cn3c2=O)c(F)cc1C#N)S(=O)(=O)CC` gave a melting point of 176 to 178 °C.

`Cc1cc(C#N)cc(C)c1Oc1nc(Nc2ccc(C#N)cc2)nc(C)c1Br` yielded a melting point of 260 to 262 °C.

Turning to `CCCCCc1nc2c(N)nc3c(c2n1CCCCNS(C)(=O)=O)CCCC3`, the melting point is 167 to 168 °C.

`CS(=O)(=O)N1CCC(C(=O)Nc2ccccc2Oc2ccc(Cl)cc2Cl)CC1` showed a melting point of 150 to 151 °C.

Consider `N#Cc1ccc(C(=O)c2cc(C(F)(F)F)ccc2O)cc1`, for which the melting point is 118 °C.

In the case of `CC(C)(C)c1ccc2c(c1)-c1c(c(C(=O)C(C#N)C(=O)NCc3ccccc3)nn1-c1ccccc1)CO2` (configuration not stated), the melting point was in the range of 281 to 284 °C.

As to `O=P(O)(O)C(O)(Cc1nn(-c2ccc(F)cc2)cc1-c1ccc(Cl)cc1)P(=O)(O)O`, the melting point was 201 to 203 °C.

As to `O=C(O)Cc1ccc2c(c1)Cc1ccccc1C(=O)C2`, the melting point fell in the range of 186 to 188 °C.

In the case of `CCn1nnnc1SCc1c(S(C)(=O)=O)ccc(C(=O)OC2=CC(=O)CCC2)c1Cl`, the melting point is 122 to 123 °C.

`O=C(Nc1ccc(Oc2ccnc(N3CCOCC3)n2)c2ccccc12)c1cc(F)cc(N2CCOCC2)c1` had a melting point of 104 to 106 °C.

Turning to `O=[N+]([O-])c1cnc2cc(Cl)ccc2c1O`, the melting point was more than 300 °C.

`O=C1CN(CCCBr)Oc2ccccc21` returned a melting point of 90 to 92 °C.

`Cc1cc(=O)c2cc(Oc3ccccc3)c(NS(C)(=O)=O)cc2o1` gave a melting point of 186 to 187 °C.

The molecule `COC(=O)C1CC(C#N)(c2ccc(OC(F)F)c(OC3CCCC3)c2)CCC1=O` (configuration not stated) yielded a melting point of 109 to 110 °C.

`CCCCCCCCCCCCCCc1ccc(N(CC(=O)OC)CC(=O)OC)cc1` displayed a melting point of 160 to 165 °C.

Take `Cc1cc(N2CC=CCC2)nn2cnnc12`: the melting point lay within 103 to 106 °C.

`COc1ccc(C(C)(C)C)cc1C(=O)NCCc1ccc(OC)c(S(N)(=O)=O)c1` registered a melting point of 165 to 168 °C.

As for `CCOC(=O)C(=O)c1cn(CC)c2cc(-c3ccc(OC(F)(F)F)cc3)ccc12`, the melting point was 114 to 116 °C.

Molecule `Cc1ncsc1C(C)(O)c1cc2ccccc2o1` (configuration not stated) gave a melting point of 139 to 140 °C.

The molecule `COc1cnn(-c2ccc(C)cc2)n1` displayed a melting point of 65 to 67 °C.

Molecule `O=C(O)Cc1ccc2c(c1)Cc1cccnc1O2` registered a melting point of 218 °C.

In turn, `O=C(O)CNC(=O)C(c1ccccc1)c1ccccc1` yielded a melting point of 113 to 115 °C.

`C=C1CSc2sccc2C1=O` gave a melting point of 64 to 65 °C.

Take `CCOC(=O)c1cnc2c(SC(=O)N(C)C)nccn2c1=O`: the melting point was 125 to 128 °C.

In turn, `OC1=C(c2ccccc2)CC(O)(Cl)C=C1` (configuration not stated) showed a melting point of 110 to 111 °C.

Molecule `CSc1nccc(C(C)=O)n1` returned a melting point of 35 °C.

Molecule `COc1ccc(/C=C/C(=O)CC(=O)/C=C/c2ccc(O)c(F)c2)cc1O` came in with a melting point of 173 to 176 °C.

Turning to `NC(=O)[C@@H]1C[C@H](F)CN1C(=O)CCl`, the melting point is 95 to 96 °C.

Turning to `O=C(N[C@@H](Cc1ccccc1)C(=O)CSCc1ccco1)OCc1ccccc1`, the melting point stood at 64 °C.

Regarding `CS(=O)(=O)Oc1cc(=O)c(OCc2ccccc2)cn1Cc1ccccc1`, the melting point was in the range of 115 to 117 °C.

With `CCc1noc(-c2cn(-c3cccc(Oc4ccccc4)c3)cn2)n1`, the melting point was 108 to 109 °C.

As for `NS(=O)(=O)c1ccccc1C(=O)OC1COC1`, the melting point was in the range of 169 to 170 °C.

Take `O=C(NC1C(=O)Nc2ccccc2SC1c1ccccc1)OCc1ccccc1` (configuration not stated): the melting point was 246 to 248 °C.

In turn, `C=CCn1cc(C(=O)O)c(=O)c2cc(F)c(N3CCOCC3)cc21` had a melting point of 210 °C.

In the case of `Clc1ccc2[nH]c3c(c2c1)CCN1CCCC=C31`, the melting point is 114 °C.

`CC(C)Oc1ccc2c(=O)c3ccc(O)cc3oc2c1` registered a melting point of 268 to 281 °C.

For the molecule `CSc1nn2c(N)cc(C)nc2c1S(=O)(=O)c1ccc2ccccc2c1`, the melting point is more than 230 °C.

The values above are taken from a melting point compilation (Tetko et al.; mined from patent text by program, amines drawn as free bases though some values may be those of a salt).
